Source: US10787443B2, “RAF-degrading conjugate compounds” (ZAMBONI CHEM SOLUTIONS INC., priority 2017, dated 2020)

tested on: GST-Braf kinase domain and biotinylated E3 substrate adapter (VHL/EloB/EloC complex or CRBN318-425); test: Dimerization assay (AlphaScreen/AlphaLisa), RAF/E3 dimerization; format: binding; details: Table 15; relative value; compounds 4 fold serial dilutions from 20 μM

| RAF/E3 Dimerization | SMILES |
| --- | --- |
| + + | Cc1ncc(NC(=O)c2cccc(C(F)(F)F)c2)cc1-c1cnc(OCc2cn(CCCCCC(=O)Nc3cccc4c3C(=O)N(C3CCC(=O)NC3=O)C4=O)nn2)c(N2CCOCC2)c1 (centres unmarked) [Compound 1.001, N-(6′-((1-(6-((2-(2,6-dioxopiperidin-3-yl)-1,3-dioxoisoindolin-4-yl)amino)-6-oxohexyl)-1H-1,2,3-triazol-4-yl)methoxy)-2-methyl-5′-morpholino-[3,3′-bipyridin]-5-yl)-3-(trifluoromethyl)benzamide] |
| + + + | Cc1ncc(NC(=O)c2cccc(C(F)(F)F)c2)cc1-c1cnc(OCCOCCOCCOCCOCCOCc2cn(CCCCCC(=O)Nc3cccc4c3C(=O)N(C3CCC(=O)NC3=O)C4=O)nn2)c(N2CCOCC2)c1 (centres unmarked) [Compound 1.008, N-(6′-((1-(1-(6-((2-(2,6-dioxopiperidin-3-yl)-1,3-dioxoisoindolin-4-yl)amino)-6-oxohexyl)-1H-1,2,3-triazol-4-yl)-2,5,8,11,14-pentaoxahexadecan-16-yl)oxy)-2-methyl-5′-morpholino-[3,3′-bipyridin]-5-yl)-3-(trifluoromethyl)benzamide] |
| + + | Cc1ncc(NC(=O)c2cccc(C(F)(F)F)c2)cc1-c1cnc(OCCCc2cn(CCCCCC(=O)Nc3cccc4c3C(=O)N(C3CCC(=O)NC3=O)C4=O)nn2)c(N2CCOCC2)c1 (centres unmarked) [Compound 1.003, N-(6′-(3-(1-(6-((2-(2,6-dioxopiperidin-3-yl)-1,3-dioxoisoindolin-4-yl)amino)-6-oxohexyl)-1H-1,2,3-triazol-4-yl)propoxy)-2-methyl-5′-morpholino-[3,3′-bipyridin]-5-yl)-3-(trifluoromethyl)benzamide] |

| SMILES | RAF/E3 Dimerization |
| --- | --- |
| Cc1ncc(NC(=O)c2cccc(C(F)(F)F)c2)cc1-c1cnc(OCCCCc2cn(CCCCCC(=O)Nc3cccc4c3C(=O)N(C3CCC(=O)NC3=O)C4=O)nn2)c(N2CCOCC2)c1 (centres unmarked) [Compound 1.004, N-(6′-(4-(1-(6-((2-(2,6-dioxopiperidin-3-yl)-1,3-dioxoisoindolin-4-yl)amino)-6-oxohexyl)-1H-1,2,3-triazol-4-yl)butoxy)-2-methyl-5′-morpholino-[3,3′-bipyridin]-5-yl)-3-(trifluoromethyl)benzamide] | + (5% > RAF/E3 Dimerization) |

same assay, conditions: Table 16; relative value; compounds 4 fold serial dilutions from 20 μM

| RAF/E3 Dimerization | SMILES |
| --- | --- |
| + + + | Cc1ncc(NC(=O)c2cccc(C(F)(F)F)c2)cc1-c1cnc(OCCOCCOCCOCC(=O)N[C@@H](C(=O)N2C[C@H](O)C[C@H]2C(=O)N[C@@H](C)c2ccc(-c3scnc3C)cc2)C(C)(C)C)c(N2CCOCC2)c1 [Compound 1.013, (2S,4R)-1-((R)-2-(tert-butyl)-14-((2′-methyl-5-morpholino-5′-(3-(trifluoromethyl)benza-mido)-[3,3′-bipyridin]-6-yl)oxy)-4-oxo-6,9,12-trioxa-3-azatetradecan-1-oyl)-4-hydroxy-N—((S)-1-(4-(4-methylthiazol-5-yl)phenyl)ethyl)pyrrolidine-2-carboxamide] |

same assay, conditions: Table 17; relative value; compounds 4 fold serial dilutions from 20 μM

| RAF/E3 Dimerization | SMILES |
| --- | --- |
| + (5% > RAF/E3 Dimerization) | CCC(Cc1cnnn1CCCCCC(=O)Nc1cccc2c1C(=O)N(C1CCC(=O)NC1=O)C2=O)Oc1ncc(-c2cc(NC(=O)c3cccc(C(F)(F)F)c3)cnc2C)cc1N1CCOCC1 (racemic) [Compound 1.012, (±)-N-(6′-((1-(1-(6-((2-(2,6-dioxopiperidin-3-yl)-1,3-dioxoisoindolin-4-yl)amino)-6-oxohexyl)-1H-1,2,3-triazol-5-yl)butan-2-yl)oxy)-2-methyl-5′-morpholino-[3,3′-bipyridin]-5-yl)-3-(trifluoromethyl)benzamide] |
| ++ (25% > RAF/E3 Dimerization ≥ 5%) | O=C1CCC(N2Cc3c(CCCOCCOCCNC(=O)c4cc(Oc5ccc(NC(=O)Nc6ccc(Cl)c(C(F)(F)F)c6)cc5)ccn4)cccc3C2=O)C(=O)N1 (centres unmarked) [Compound 2.033, 4-(4-(3-(4-chloro-3-(trifluoromethyl)phenyl)ureido)phenoxy)-N-(2-(2-(3-(2-(2,6-dioxopiperidin-3-yl)-1-oxoisoindolin-4-yl)propoxy)ethoxy)ethyl)picolinamide] |
| +++ (50% > RAF/E3 Dimerization ≥ 25) | Cc1ncsc1-c1ccc([C@H](C)NC(=O)[C@@H]2C[C@@H](O)CN2C(=O)[C@H](NC(=O)COCCOCCNC(=O)CCNc2nccc(-c3cn(CC(F)F)nc3-c3cnc4[nH]ccc4c3)n2)C(C)(C)C)cc1 [Compound 2.046, (2S,4R)-1-((R)-2-(tert-butyl)-15-((4-(1-(2,2-difluoroethyl)-3-(1H-pyrrolo[2,3-b]pyridin-5-yl)-1H-pyrazol-4-yl)pyrimidin-2-yl)amino)-4,13-dioxo-6,9-dioxa-3,12-diazapentadecan-1-oyl)-4-hydroxy-N—((S)-1-(4-(4-methylthiazol-5-yl)phenyl)ethyl)pyrrolidine-2-carboxamide] |
| ++++ (75% > RAF/E3 Dimerization ≥ 50%) | Cc1ncc(NC(=O)c2cccc(C(F)(F)F)c2)cc1-c1cnc(O[C@@H]2CCO[C@@H](COCc3cn(CCCCCC(=O)N[C@@H](C(=O)N4C[C@H](O)C[C@H]4C(=O)N[C@@H](C)c4ccc(-c5scnc5C)cc4)C(C)(C)C)nn3)C2)c(N2CCOCC2)c1 [Compound 2.005] |
| + (5% > RAF/E3 Dimerization) | O=C1CCC(N2C(=O)c3cccc(CCCOCCNC(=O)c4cc(Oc5ccc(NC(=O)Nc6ccc(Cl)c(C(F)(F)F)c6)cc5)ccn4)c3C2=O)C(=O)N1 (centres unmarked) [Compound 2.029, 4-(4-(3-(4-chloro-3-(trifluoromethyl)phenyl)ureido)phenoxy)-N-(2-(3-(2-(2,6-dioxopiperidin-3-yl)-1,3-dioxoisoindolin-4-yl)propoxy)ethyl)picolinamide] |
| ++ (25% > RAF/E3 Dimerization ≥ 5%) | Cc1ncc(NC(=O)c2cccc(C(F)(F)F)c2)cc1-c1cnc(OCCOCc2cn(CCCCCC(=O)Nc3cccc4c3C(=O)N(C3CCC(=O)NC3=O)C4=O)nn2)c(N2CCOCC2)c1 (centres unmarked) [Compound 2.022, N-(6′-(2-((1-(6-((2-(2,6-dioxopiperidin-3-yl)-1,3-dioxoisoindolin-4-yl)amino)-6-oxohexyl)-1H-1,2,3-triazol-4-yl)methoxy)ethoxy)-2-methyl-5′-morpholino-[3,3′-bipyridin]-5-yl)-3-(trifluoromethyl)benzamide] |
| + (5% > RAF/E3 Dimerization) | CNc1ncc2cc(-c3cc(NC(=O)NCCOCCOCCOCCOCCOCC(=O)N[C@@H](C(=O)N4C[C@H](O)C[C@H]4C(=O)N[C@@H](C)c4ccc(-c5scnc5C)cc4)C(C)(C)C)c(F)cc3C)c(C)nc2n1 [Compound 2.040, (2S,4R)-1-((R)-21-(tert-butyl)-1-((2-fluoro-4-methyl-5-(7-methyl-2-(methylamino)pyrido[2,3-d]pyrimidin-6-yl)phenyl)amino)-1,19-dioxo-5,8,11,14,17-pentaoxa-2,20-diazadocosan-22-oyl)-4-hydroxy-N—((S)-1-(4-(4-methylthiazol-5-yl)phenyl)ethyl)pyrrolidine-2-carboxamide] |
| + (5% > RAF/E3 Dimerization) | O=C1CCC(N2Cc3c(CCCCCCNC(=O)c4cc(Oc5ccc(NC(=O)Nc6ccc(Cl)c(C(F)(F)F)c6)cc5)ccn4)cccc3C2=O)C(=O)N1 (centres unmarked) [Compound 2.031, 4-(4-(3-(4-chloro-3-(trifluoromethyl)phenyl)ureido)phenoxy)-N-(6-(2-(2,6-dioxopiperidin-3-yl)-1-oxoisoindolin-4-yl)hexyl)picolinamide] |
| ++ (25% > RAF/E3 Dimerization ≥ 5%) | CNc1ncc2cc(-c3cc(NC(=O)NCCCCCCOCCOCCOCCOCC(=O)N[C@@H](C(=O)N4C[C@H](O)C[C@H]4C(=O)N[C@@H](C)c4ccc(-c5scnc5C)cc4)C(C)(C)C)c(F)cc3C)c(C)nc2n1 [Compound 2.043, (2S,4R)-1-((R)-22-(tert-butyl)-1-((2-fluoro-4-methyl-5-(7-methyl-2-(methylamino)pyrido[2,3-d]pyrimidin-6-yl)phenyl)amino)-1,20-dioxo-9,12,15,18-tetraoxa-2,21-diazatricosan-23-oyl)-4-hydroxy-N—((S)-1-(4-(4-methylthiazol-5-yl)phenyl)ethyl)pyrrolidine-2-carboxamide] |
| +++++ (RAF/E3 Dimerization ≥75%) | Cc1ncsc1-c1ccc([C@H](C)NC(=O)[C@@H]2C[C@@H](O)CN2C(=O)[C@H](NC(=O)COCCOCCOCCOCCCCCCn2cc(-c3ccnc(NCCC#N)n3)c(-c3cnc4[nH]ccc4c3)n2)C(C)(C)C)cc1 [Compound 2.045, (2S,4R)-1-((R)-2-(tert-butyl)-21-(4-(2-((2-cyanoethyl)amino)pyrimidin-4-yl)-3-(1H-pyrrolo[2,3-b]pyridin-5-yl)-H-pyrazol-1-yl)-4-oxo-6,9,12,15-tetraoxa-3-azahenicosan-1-oyl)-4-hydroxy-N—((S)-1-(4-(4-methylthiazol-5-yl)phenyl)ethyl)pyrrolidine-2-carboxamide] |
| + (5% > RAF/E3 Dimerization) | Cc1ncsc1-c1ccc([C@H](C)NC(=O)[C@@H]2C[C@@H](O)CN2C(=O)[C@H](NC(=O)CCOCCOCCOCCOCCNC(=O)c2cc(Oc3ccc(NC(=O)Nc4ccc(Cl)c(C(F)(F)F)c4)cc3)ccn2)C(C)(C)C)cc1 [Compound 1.015, 4-(4-(3-(4-chloro-3-(trifluoromethyl)phenyl)ureido)phenoxy)-N-(17-((2S,4R)-4-hydroxy-2-(((S)-1-(4-(4-methylthiazol-5-yl)phenyl)ethyl)carbamoyl)pyrrolidine-1-carbonyl)-18,18-dimethyl-15-oxo-3,6,9,12-tetraoxa-16-azanonadecyl)picolinamide] |

| SMILES | RAF/E3 Dimerization |
| --- | --- |
| CNc1ncc2cc(-c3cc(NC(=O)NCCOCCOCCOCC(=O)N[C@@H](C(=O)N4C[C@H](O)C[C@H]4C(=O)N[C@@H](C)c4ccc(-c5scnc5C)cc4)C(C)(C)C)c(F)cc3C)c(C)nc2n1 [Compound 2.041, (2S,4R)-1-((R)-15-(tert-butyl)-1-((2-fluoro-4-methyl-5-(7-methyl-2-(methylamino)pyrido[2,3-d]pyrimidin-6-yl)phenyl)amino)-1,13-dioxo-5,8,11-trioxa-2,14-diazahexadecan-16-oyl)-4-hydroxy-N—((S)-1-(4-(4-methylthiazol-5-yl)phenyl)ethyl)pyrrolidine-2-carboxamide] | + (5% > RAF/E3 Dimerization) |
